How the values were obtained:
[1] = system: passive cutaneous anaphylaxis (PCA); assay: Inhibitory effect on passive cutaneous anaphylaxis (PCA), oral; assay type: in vivo, rat (SD/JCL strain); conditions: rat
Experimental: Rat antiserum to egg albumin was prepared by the method of I. Mota, "Immunology" 7, 681-699 (1964), and 400 folds diluted. The diluted antiserum (0.1 ml) was injected into dorsal skin of rats (SD/JCL strain, male, 9-week-old) to subject them to passive immunization.
Forty-eight to seventy-two hours later, each rat was orally given a compound of this invention suspended in a 1% gum arabic aqueous solution. Five minutes after the administration, each rat was intravenously injected at its tail with 1 ml of a mixture containing equal volumes of a 0.5% solution of egg albumin in saline and 0.5% solution of Evans Blue in saline. Thirty minutes later, each rat was beheaded and the extravasated dye was quantitatively measured by the method of Katayama et al., "Microbiol. Immunol" 22, 89-101 (1978).
The percent inhibition was calculated by comparing the amount of Evans Blue leaking in the test groups with that in the control group in which a gum arabic aqueous solution containing no test compound was administered to the test animal.
In Table 1, inhibition efficiencies of 30 to 50%, 51-70%, 71-90% and 91% or more are represented by the ratings +, ++, +++ and ++++, respectively. The numbers given to the test compounds correspond to the Example Nos.

IgE antibody = assay: Inhibitory effect on production of IgE antibody, oral, X-ray exposed mice immunized with DNP-KLH; assay type: in vivo, mouse (SJL/J strain); conditions: mouse
Experimental: Inhibitory effect on production of IgE antibody SJL/J strain mice (8-week-old) were exposed to X-rays of 400 R, and concurrently injected intraperitoneally a mixture of 1 μg of Keyhole Limpet Hemocyanin (KLH) with 4 mg of an aluminum hydroxide gel. One week later, the mice were intraperitoneally administered with a mixture of 1 μg of dinitrophenyl group-binding KLH (DNP-KLH) with 4 mg of an aluminum hydroxide gel. From the next day of the immunization with DNP-KLH, each of the mice was forced to be orally administered by using gastric catherter with a test compound suspended in a 1% gum arabic aqueous solution. The mice in a control group were administered with only the gum arabic solution.
The serum was sampled from each of the mice treated above, and the amount of IgE therein was measured by the "Rat 48-hour PCA test" similarly as described in Experiment 1. The amount of IgE was expressed in terms of the maximum dilution of the serum by which a cutaneous reaction appeared in an area with a diameter of 5 mm or more to be observed.
The percent inhibition was indicated as the ratio of the amount of IgE of the test group to that of the control group.
In Table 2, inhibition efficiencies of 25-50%, 50-75% and 75% or more are represented by ratings ++, +++ and ++++, respectively. The numbers given to the test compounds correspond to the Example Nos.

SMILES	Percent Inhibition ([1]; dose 10 mg/kg)	Percent Inhibition (IgE antibody; dose 5 mg/kg)	other results
CCCOC(=O)c1cc(C(=O)NC)nc(C(=O)NC)c1 [Compound 4]	++ (51-70%)		
CCOC(=O)c1cc(C(=O)NC)nc(C(=O)NC)c1 [Compound 1, ethyl 2,6-bis(N-methylcarbamoyl)pyridine-4-carboxylate]		++++ (75% or more)	Percent Inhibition ([1]; dose 5 mg/kg): ++++ (91% or more)
CNC(=O)c1cc(C(=O)OCCOC)cc(C(=O)NC)n1 [Compound 7]	++ (51-70%)		
CCOC(=O)c1cc(C(=O)NC)nc(C(=O)NC)c1NC [Compound 11, ethyl 3-methylamino-2,6-bis(N-methylcarbamoyl)pyridine-4-carboxylate]	++++ (91% or more)	++++ (75% or more)	
CCOC(=O)c1cc(C(=O)NC)nc(C(=O)NC)c1N [Compound 10, ethyl 3-amino-2,6-bis(N-methylcarbamoyl)pyridine-4-carboxylate]	+++ (71-90%)		Percent Inhibition (IgE antibody; dose 10 mg/kg): ++++ (75% or more)
CNC(=O)c1cc(C(=O)O)cc(C(=O)NC)n1 [Compound 2, 2,6-bis(N-methylcarbamoyl)pyridine-4-carboxylic acid]			Percent Inhibition (IgE antibody; dose 50 mg/kg): ++++ (75% or more); Percent Inhibition ([1]; dose 50 mg/kg): + (30 to 50%)
CNC(=O)c1cc(C(=O)OC(C)C)cc(C(=O)NC)n1 [Compound 5]		+++ (50-75%)	
CNC(=O)c1cc(C(=O)OCCO)cc(C(=O)NC)n1 [Compound 8, 2-hydroxyethyl 2,6-bis(N-methylcarbamoyl)pyridine-4-carboxylate]	++ (51-70%)	++ (25-50%)	

Reference: patent US4691018A, “Pyridine derivatives and their use as anti-allergic agents” (Chugai Seiyaku Kabushiki Kaisha, priority 1985, dated 1987)
